Data from PMC7312485, “Lessons on the Sigma-1 Receptor in TNBS-Induced Rat Colitis: Modulation of the UCHL-1, IL-6 Pathway” (International Journal of Molecular Sciences, 2020).

How the values were obtained:
[1] = tested on: myeloperoxidase enzyme (MPO); experiment: Myeloperoxidase activity in colon, TNBS colitis; assay type: in vivo, rat
Method: (§1) Animals were randomly divided into 3 groups: absolute control (no treatment, n = 12), 50% EtOH (ethanol enema, n = 12), and TNBS (10 mg dissolved in 50% Ethanol, n = 85). Colitis was assessed following Morris’ method. Animals fasted overnight and a TNBS enema was administered intracolonically (i.c.) with an 8cm long polyethylene canulla through the anus under mild anesthesia (Thiopental, i.p. 40 mg/kg). […] Animals were fasted for 5 h each day before i.c. treatments.
(§2) After 72 h of TNBS administration, euthanized animals (Thiopental, i.p. 100 mg/kg) were sacrificed and the last 8 cm portion of the colon was removed, gently opened, rinsed in physiological saline and photographed for further macroscopic analysis. Then, the colon segments were frozen in liquid nitrogen. Frozen colon tissues were powdered in liquid nitrogen by using a porcelain mortar and pestle and kept at −80 °C until used for biochemical measurements.
To further break the membranes, three freeze–thaw cycles were applied in liquid nitrogen and a 37 °C water bath. Homogenates then were centrifuged at 10,000× g for 15 min at 4 °C. […] The reaction was started with the addition of 10 µL 0.03% hydrogen peroxide (H2O2). After shaking for 90 s, MPO activity was assayed spectrophotometrically at 490 nm (Benchmark Microplate Reader, Bio-Rad Laboratories, Hercules, CA, USA). MPO activity was expressed as uU/mg protein.

[2] = tested on: TNBS-induced rat colitis; experiment: Severity of inflammation (macroscopic lesion area by planimetry) in TNBS-induced colitis; assay type: in vivo; details: TNBS group 61.68 ± […]
Method: as §1, §2
The extent of macroscopically apparent inflammation, ulceration and tissue disruption was determined in a randomized manner from the colored images, using proprietary computerized planimetry software which was developed in our laboratory (Stat_2_1_1, Szeged, Hungary) and is based on planimetrics. The area of macroscopically visible mucosal damage was calculated and expressed as a % of the total studied 8 cm colonic segment.

[3] = tested on: HMGB1; experiment: Western blot of HMGB1 expression in colon, TNBS colitis; assay type: in vivo, rat; details: TNBS group 1.75 ± 0.165
Method: (§3) Male Wistar–Harlan rats (225–250 g) were purchased from Toxicoop Ltd. (Dunakeszi, Hungary) and housed in a room with acclimatized temperature under 12h day/night cycles with food and water ad libitum. Animals were randomly divided into 3 groups: absolute control (no treatment, n = 12), 50% EtOH (ethanol enema, n = 12), and TNBS (10 mg dissolved in 50% Ethanol, n = 85). Colitis was assessed following Morris’ method. Animals fasted overnight and a TNBS enema was administered intracolonically (i.c.) with an 8cm long polyethylene canulla through the anus under mild anesthesia (Thiopental, i.p. 40 mg/kg). […]
(§4) In total, 30 mg from each powdered sample was measured and suspended in RIPA buffer (Merck Millipore, Burlington, MA, USA) supplemented with phenylmethylsulfonyl fluoride (PMSF) (Sigma-Aldrich, Budapest, Hungary); 1/10 of the final volume. […] The supernatant was collected and protein concentration was determined by using a Bradford assay and bovine serum albumin as a standard. […] Results were analyzed using Quantity One Software version 4.5 (Bio-Rad Laboratories, Hercules, CA, USA). […]

[4] = tested on: NF-κB p65 subunit; experiment: Western blot of NF-κB p65 expression in colon, TNBS colitis; assay type: in vivo, rat; details: TNBS group 0.83 ± 0.09
Method: as §3, §4

[5] = tested on: IL-6; experiment: IL-6 levels in colon by ELISA, TNBS colitis; assay type: in vivo, rat
Method: as §3
(§5) To determine the tissue levels of IL-6 and eNOS in the colon, we used double-antibody sandwich ELISA kits specific for rat IL-6 or eNOS. eNOS kit was purchased from MyBioSource (MBS721860; San Diego, CA, USA) and IL-6 was purchased from GenAsia Biotech Co., Ltd. (Shanghai, China). […] Parameters were measured according to the manufacturer’s instructions and protocols, and optical densities (OD) were assayed at λ = 450 nm. […]

[6] = target: T1, sigma-1 receptor (σ1R) (Rattus norvegicus, UniProt Q9R0C9); experiment: [3H](+)-pentazocine saturation binding in rat colon membranes; details: TNBS-induced colitis rat colon membranes after 1 mg/kg FLV administration (TNBS + FLV)
T1 construct: from tissue; host or cells: rat colon membrane homogenate (male Wistar–Harlan rats; control, TNBS, 50% EtOH, TNBS + FLV treated)
Method: The homogenate was centrifuged at 17,000× g for 10 min (4 °C).
The incubation was terminated by diluting the samples with an ice-cold wash buffer (50 mM of Tris–HCl, pH 8.0), followed by repeated washing and rapid filtration through Whatman GF/B glass fiber filters (Whatman Ltd., Maidstone, UK) presoaked with 0.1% polyethyleneimine. Filtration was performed with a 24-well Brandel Cell Harvester (Gaithersburg, MD, USA). Filters were air-dried and immersed into Ultima Gold MV scintillation cocktail, and then radioactivity was measured with a TRI-CARB 2100TR liquid scintillation analyzer (Packard, Perkin Elmer, Waltham, MA, USA).
All data are presented as mean ± SEM. […] In competition binding studies, the inhibitory constants (Ki) were calculated from the inflection points of the displacement curves using nonlinear least-square curve fitting and the Cheng–Prusoff equation, Ki = EC50/(1 + [ligand]/Kd).

[7] = tested on: UCHL-1; experiment: Western blot of UCHL-1 expression in colon, TNBS colitis; assay type: in vivo, rat; details: FLV 1 mg/kg i.c.; TNBS group 1.23 ± 0.16
Method: as §3, §4

[8] = tested on: iNOS; experiment: Western blot of iNOS expression in colon, TNBS colitis; assay type: in vivo, rat
Method: as §3, §4

[9] = tested on: heme oxygenase enzyme (HO); experiment: Heme oxygenase activity (bilirubin formation) in colon, TNBS colitis; assay type: in vivo, rat; details: TNBS group 0.26 ± 0.03
Method: as §1, §2

[10] = tested on: eNOS; experiment: eNOS levels in colon by ELISA, TNBS colitis; assay type: in vivo, rat; details: FLV 1 mg/kg i.c.; TNBS group 2.62 ± 0.126
Method: as §3, §5

[11] = tested on: sigma-1 receptor (σ1R); experiment: Western blot of sigma-1 receptor expression in colon, TNBS colitis; assay type: in vivo, rat
Method: as §3, §4

T1 sequence (Q9R0C9 whole entry): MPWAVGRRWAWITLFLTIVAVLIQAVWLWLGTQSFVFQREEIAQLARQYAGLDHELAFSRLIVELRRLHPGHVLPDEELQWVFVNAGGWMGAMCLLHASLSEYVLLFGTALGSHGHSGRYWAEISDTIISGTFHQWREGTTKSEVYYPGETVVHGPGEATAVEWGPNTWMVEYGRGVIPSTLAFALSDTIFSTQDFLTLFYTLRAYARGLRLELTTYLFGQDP

For COCCCC/C(=N\OCCN)c1ccc(C(F)(F)F)cc1 [FLV, Fluvoxamine], the MPO activity ([1]; FLV 1 mg/kg i.c., TNBS group 42653.4 ± 3220.24) was 25021.2 ± 2554.66 uU/mg protein, the “Severity of inflammation (area of mucosal damage, % of 8 cm colonic segment)” value ([2]; 0.1 mg/kg FLV i.c. once a day, 72 h after TNBS) was 41.23 ± 5.76% and the “Severity of inflammation (area of mucosal damage, % of 8 cm colonic segment)” value ([2]; 1 mg/kg i.c. once a day, 72 h after TNBS) was 28.29 ± 2.53%. The “HMGB1 expression (normalized to β-actin)” value ([3]; FLV 1 mg/kg i.c.) was 1.264 ± 0.07 relative expressions, the “NF-κB p65 subunit expression (normalized to β-actin)” value ([4]; FLV 1 mg/kg i.c.) was 0.52 ± 0.04 relative expression and the “IL-6 levels in colon” value ([5]; FLV 1 mg/kg i.c., TNBS group 60.48 ± 4.55) was 30.53 ± 4.10 ng/L. The “Bmax ± S.E.M., saturation binding (σ1R density)” value [6] was 134 ± 14 fmol/mg, the “UCHL-1 expression (normalized to β-actin)” value [7] was 2.104 ± 0.13 relative expression and the “iNOS expression (normalized to β-actin)” value ([8]; FLV 1 mg/kg i.c., TNBS group 0.53 ± 0.02) was 0.255 ± 0.11 relative expression. The HO enzyme activity ([9]; FLV 1 mg/kg i.c.) was 0.40 ± 0.03 nmol bilirubin/h/mg protein, the eNOS levels [10] was 4.21 ± 0.66 relative expression and the “σ1R expression (normalized to β-actin)” value ([11]; FLV 1 mg/kg i.c., TNBS group 0.326 ± 0.05) was 0.72 ± 0.083 relative expression.

In the case of CN1CCN(CCc2ccc(Cl)c(Cl)c2)CC1 [BD1063], the “MPO activity vs. TNBS group” value ([1]; BD1063 0.1 mg/kg i.c.) is reported as “didn’t affect the activity of the MPO”, the “Severity of inflammation (area of mucosal damage, % of 8 cm colonic segment)” value ([2]; 0.1 mg/kg BD1063 i.c. once a day) is reported as 76.77 ± 2.52% and the “HMGB1 expression (normalized to β-actin)” value ([3]; BD1063 0.1 mg/kg i.c.) is reported as 1.305 ± 0.044 relative expressions. The “NF-κB p65 subunit expression (normalized to β-actin)” value ([4]; BD1063 0.1 mg/kg i.c.) was 0.48 ± 0.03 relative expression, the “IL-6 levels vs. TNBS group” value ([5]; BD1063 0.1 mg/kg i.c.) was “didn’t affect IL-6 levels” and the “iNOS expression vs. TNBS group” value ([8]; BD1063 0.1 mg/kg i.c.) was “did not alter the expression of iNOS”. The HO enzyme activity ([9]; BD1063 0.1 mg/kg i.c.) was 0.40 ± 0.04 nmol bilirubin/h/mg protein and the “σ1R expression vs. TNBS group” value ([11]; BD1063 0.1 mg/kg i.c.) was “didn’t affect the expression of the receptor”.

For O=C(O)c1cc(/N=N/c2ccc(S(=O)(=O)Nc3ccccn3)cc2)ccc1O [SASP, Sulfasalazine], the “Severity of inflammation (area of mucosal damage, % of 8 cm colonic segment)” value ([2]; positive control, 2 × 25 mg/kg per os) was 35.78 ± 2.83%.
